One experiment concerns the target T1, FAAH (Rattus norvegicus, UniProt P97612).
T1 construct: the rat brain homogenate was diluted so that its protein concentration could be 60 μg/ml, thereby preparing an enzyme solution; from tissue; host or cells: rat cerebrum (SD-line male rat, 10 weeks) homogenate, 15000 x g pellet
T1 sequence (P97612 1-579): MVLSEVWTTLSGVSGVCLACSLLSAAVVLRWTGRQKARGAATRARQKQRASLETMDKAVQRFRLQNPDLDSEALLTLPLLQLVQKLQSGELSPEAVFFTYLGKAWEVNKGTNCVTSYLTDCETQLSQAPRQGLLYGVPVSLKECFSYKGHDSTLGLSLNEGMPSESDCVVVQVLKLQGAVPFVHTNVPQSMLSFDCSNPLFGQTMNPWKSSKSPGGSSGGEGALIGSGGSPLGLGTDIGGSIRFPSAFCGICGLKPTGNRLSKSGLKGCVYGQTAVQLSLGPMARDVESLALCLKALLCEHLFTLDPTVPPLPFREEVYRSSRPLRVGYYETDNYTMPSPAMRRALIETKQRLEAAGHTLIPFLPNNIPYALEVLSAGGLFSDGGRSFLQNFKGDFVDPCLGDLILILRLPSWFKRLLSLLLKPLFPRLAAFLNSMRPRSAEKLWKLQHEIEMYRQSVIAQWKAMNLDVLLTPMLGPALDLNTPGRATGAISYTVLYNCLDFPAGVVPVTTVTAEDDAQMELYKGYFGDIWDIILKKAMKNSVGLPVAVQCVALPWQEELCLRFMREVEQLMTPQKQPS
As to the kind of experiment: Screening for an FAAH activity inhibiting substance using a rat brain homogenate (IC50). The following applies: radiolabeled anandamide substrate, 1 hour. The class given is biochemical. How it is done:
Screening for an FAAH Activity Inhibiting Substance Using a Rat Brain Homogenate
(1) Preparation of a Rat Brain Homogenate
The head of a 10-week-old SD-line male rat (Japan SLC., Inc.) was cut off, and its cerebrum was taken out and weighed. Five times by volume its weight of an ice-cooled buffer (50 mM Tris-HCl (pH 7.4), 0.32 M sucrose) was added, and this was homogenized with a homogenizer in ice to give a uniform suspension. This was centrifuged (1500×g, 4° C., 15 minutes), and the supernatant was again centrifuged (15000×g, 4° C., 20 minutes) to obtain a precipitate. Further, using an ultrasonic wave generator (UR-20P, TOMY SEIKO CO., LTD.), this was ultrasonicated (power dial 4) for 5 seconds. The protein concentration of the resulting homogenate was measured according to a dye-coupling method (protein assay CBB solution, NACALAI TESQUE, INC.). Using a buffer (50 mM Tris-HCl (pH 8.0), 1 mM EDTA, 0.1 mg/ml BSA, 100 mM NaCl), the rat brain homogenate was diluted so that its protein concentration could be 60 μg/ml, thereby preparing an enzyme solution.
(2) Screening for an FAAH Activity Inhibiting Substance
A substrate solution was prepared, comprising 2 μCi/ml radiolabeled anandamide (Anandamide [ethanolamine 1-^3H] (American Radiolabeled Chemical)), 8 μM anandamide (Funakoshi), 50 mM Tris-HCl (pH 8.0), 1 mM EDTA, 0.1 mg/ml BSA and 100 mM NaCl. Test substance solutions were prepared, dissolved in DMSO to have a concentration from 1 nM to 100 μM. 50 μl of the substrate solution and 1 μl of the test substance solution were added to 50 μl of the enzyme solution, and left for 1 hour. As a control, DMSO was added in place of the test substance solution. To this, added was 200 μl of a 1:1 (ratio by volume) solution of chloroform/methanol, followed by vortexing. This was centrifuged (15000 rpm, 2 minutes), whereby the decomposed product ethanolamine (ethanolamine 1-^3H) was separated in the upper layer (water/methanol layer) and the unreacted radiolabeled anandamide (Anandamide [ethanolamine 1-^3H]) was in the lower layer (chloroform layer). 30 μl of the upper layer was transferred into a 96-well organic solvent-resistant white microplate (PicoPlate-96; Perkin Elmer, Inc.), 150 μl of Microscint-20 (Perkin Elmer, Inc.) was added thereto, and this was measured with a microplate scintillation counter (TopCount™; Beckman Coulter, Inc.). As compared with the control, the substance that gave a decreased value was selected as an FAAH activity-inhibiting substance.
(3) Measurement of the IC50 Value of the FAAH Activity Inhibiting Substance
The compound was dissolved in DMSO to have a varying concentration from 1 nM to 100 μM to prepare test substance solutions. According to the method mentioned above, the compound was analyzed for its influence on FAAH activity. As a control, DMSO was used. A measured value of a case where a buffer (50 mM Tris-HCl (pH 8.0), 1 mM EDTA, 0.1 mg/ml BSA, 100 mM NaCl) was reacted in place of the enzyme solution was subtracted from every measured value. Based on the measured value of the control, 100%, the IC50 value of the test substance was determined. Furthermore, Ex represents the Example No. as denoted below.

Experiment [1] deals with cyclophosphamide (CPA)-induced urinary frequency. As to the kind of experiment: Effect of compound on cyclophosphamide (CPA)-induced urinary frequency in a rat (effective bladder capacity). It counts as in vivo. To be noted: CPA (100 mg/kg i.p.)-treated Wistar female rats, p.o.; for effective dose in oral administration: effective bladder capacity over 1 hour. How it is done:
Effect of Compound on Cyclophosphamide (CPA)-Induced Urinary Frequency in a Rat
Compounds were tested for their bladder irritation-relieving effect, using pathologic models. It is known that systemic administration of cyclophosphamide (CPA) converts the compound into its metabolite, acrolein, and, as existing in urine, this injures the bladder mucosa. In rats, CPA administration induces bladder pain or urinary frequency accompanied by hemorrhagic cystitis, and therefore using such rats, it is possible to evaluate the potency of drug for these symptoms. In this experiment, used were 9-week-old Wistar female rats (Charles River). CPA (100 mg/kg) was intraperitoneally administered to the rats, and after 2 days, the rats were tested. A test compound was orally administered (p.o.) to the rats; and after 15 minutes, distilled water (30 ml/kg) was forcedly orally administered thereto. The rats were put in a metabolic cage, and the weight of their urine was continuously measured for 1 hour. The overall urine amount was divided by the overall urination frequency, and the effective bladder capacity was thus calculated. […] In oral administration, the effective doses of compounds of Examples 155 and 210 were 10 mg/kg and 3 mg/kg, respectively.

Molecules are shown by their SMILES. Where a name gives a salt, the structure may show the parent alone.

As for `O=C(Nc1cccnc1)N1CCN(Cc2ccnc(OCCC3CCCCC3)c2)CC1` [Example 30, 4-{[2-(2-cyclohexylethoxy)pyridin-4-yl]methyl}-N-pyridin-3-ylpiperazine-1-carboxamide trihydrochloride], at FAAH, it took 30 nM to reach half-maximal inhibition (IC50).
On the same count and under the same terms, for `O=C(Nc1cnccn1)N1CCN(C(=O)c2ccnc(OCCC3CCCCC3)c2)CC1` [Example 38, 4-[2-(2-cyclohexylethoxy)isonicotinoyl]-N-pyrazin-2-ylpiperazine-1-carboxamide] the value was 5 nM.
With `O=C(Nc1ncccn1)N1CCN(C(=O)c2cccc(OCCC3CCCCC3)c2)CC1` [Example 155], in experiment [1], the “effect on effective bladder capacity / urinary frequency” value is “increased the reduced effective bladder capacity, and relieved the condition of urinary frequency”; the “effective dose in oral administration” value was determined as 10 mg/kg. In addition, the IC50 (usually the concentration that inhibits the measured activity by half) against FAAH is 25 nM.
For the molecule `O=C(Nc1cnccn1)N1CCN(C(=O)c2cccc(OCCC3CCCCC3)c2)CC1` [Example 210], in experiment [1], the “effect on effective bladder capacity / urinary frequency” value was “increased the reduced effective bladder capacity, and relieved the condition of urinary frequency”; the “effective dose in oral administration” value is 3 mg/kg. At FAAH, this molecule gave an IC50 of 3.3 nM.
With `CN(CCC1CCCCC1)c1ccc(C(=O)N2CCN(C(=O)Nc3cccnc3)CC2)cc1` [Example 334], the 50% inhibitory concentration (IC50) against FAAH amounted to 42 nM.
On the same count and under the same terms, for `COCC(=O)NC(=O)N1CCN(Cc2cccc(OCCC3CCCCC3)c2)CC1` [Example 439] the value was 25 nM.

The record behind these values is patent publication US20110172230A1, “UREA COMPOUND OR SALT THEREOF” (priority 2006, published 2011).
